The values below are quoted from earlier work in patent US7354953B2, “Time-release compositions for delivery of [Cr3O(carboxylate)6(H2O)3]+” (University of Alabama, priority 2006, dated 2008).

One data set deals with insulin receptor (Homo sapiens, UniProt P06213).
In data set [1] the test system is healthy and model type 2 diabetic rats.
For data set [2] the following is noted: in vivo.
A further data set has as its system rats. Particulars: for effect on body mass, percentage lean or fat content, tissue size, blood variables: rats on regular diets.
For data set [3], the system named is adult-onset diabetic patients.
The mark [4] stands for this setting: healthy and model type 2 diabetic rats.

Chain of insulin receptor (P06213 763-1382 limits assumed, species assumed): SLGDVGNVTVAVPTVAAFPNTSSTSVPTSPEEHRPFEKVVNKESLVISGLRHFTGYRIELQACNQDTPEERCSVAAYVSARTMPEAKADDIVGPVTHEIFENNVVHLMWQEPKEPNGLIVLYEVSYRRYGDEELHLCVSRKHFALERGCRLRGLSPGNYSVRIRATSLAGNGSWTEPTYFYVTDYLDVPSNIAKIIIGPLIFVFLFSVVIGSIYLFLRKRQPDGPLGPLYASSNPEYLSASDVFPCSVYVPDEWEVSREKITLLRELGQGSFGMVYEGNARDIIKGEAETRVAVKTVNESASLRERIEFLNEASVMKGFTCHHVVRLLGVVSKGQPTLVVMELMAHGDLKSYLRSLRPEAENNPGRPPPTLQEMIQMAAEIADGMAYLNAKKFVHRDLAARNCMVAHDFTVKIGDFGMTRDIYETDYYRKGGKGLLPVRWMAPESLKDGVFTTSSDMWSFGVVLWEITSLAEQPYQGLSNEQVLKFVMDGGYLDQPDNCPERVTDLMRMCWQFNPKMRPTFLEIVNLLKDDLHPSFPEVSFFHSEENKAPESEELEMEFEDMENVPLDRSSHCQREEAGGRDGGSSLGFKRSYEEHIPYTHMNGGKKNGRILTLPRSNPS
Chain of insulin receptor (P06213 28-758 partner limits assumed, species assumed): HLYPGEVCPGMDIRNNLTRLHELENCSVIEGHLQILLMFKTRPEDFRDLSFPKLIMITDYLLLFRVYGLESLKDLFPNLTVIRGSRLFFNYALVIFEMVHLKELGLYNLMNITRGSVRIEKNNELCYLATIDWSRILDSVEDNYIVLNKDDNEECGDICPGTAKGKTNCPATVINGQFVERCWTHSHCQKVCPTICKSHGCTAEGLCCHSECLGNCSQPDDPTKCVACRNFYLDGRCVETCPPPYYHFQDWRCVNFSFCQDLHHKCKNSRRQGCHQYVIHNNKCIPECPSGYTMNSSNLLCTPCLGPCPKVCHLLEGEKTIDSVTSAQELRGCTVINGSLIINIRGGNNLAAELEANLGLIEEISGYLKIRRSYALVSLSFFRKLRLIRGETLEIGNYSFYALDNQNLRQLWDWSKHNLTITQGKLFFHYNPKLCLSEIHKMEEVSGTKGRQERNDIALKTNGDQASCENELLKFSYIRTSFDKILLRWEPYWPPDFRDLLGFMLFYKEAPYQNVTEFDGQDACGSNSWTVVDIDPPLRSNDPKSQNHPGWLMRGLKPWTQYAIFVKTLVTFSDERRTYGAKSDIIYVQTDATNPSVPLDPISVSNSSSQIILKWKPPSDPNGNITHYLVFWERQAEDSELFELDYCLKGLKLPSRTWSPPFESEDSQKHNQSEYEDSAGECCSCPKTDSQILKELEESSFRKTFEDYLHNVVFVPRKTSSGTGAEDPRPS

In the case of `CCC(=O)[O-].CCC(=O)[O-].CCC(=O)[O-].CCC(=O)[O-].CCC(=O)[O-].CCC(=O)[O-].O.O.O.[Cr+3].[Cr+3].[Cr+3].[O-2]` [Complex 1, [[Cr3O(O2CCH2CH3)6(H2O)3]^+], the “ability to stimulate insulin receptor kinase activity” value at insulin receptor is “mimic the ability of LMWCr to stimulate insulin receptor kinase activity”. Further, the glycated hemoglobin entry in data set [1] (diabetes models) is given as “reduce glycated hemoglobin”. In data set [1] (setting [4]), the “blood plasma cholesterol and triglycerides levels” value is recorded as “improve”; the insulin sensitivity entry is listed as “increase insulin sensitivity”. Also, in the data set on colorectal cancer in rat, the “onset of colorectal cancer” value is given as “reduce the onset of colorectal cancer”. In data set [2], the “absorption (rate and efficiency, in words)” value is “absorbed very rapidly and very efficiently”; the absorption efficiency is listed as 40-60%. For the same molecule, the DNA cleavage result with DNA is “not to lead to DNA cleavage”.
As for `[Cl][Cr]([Cl])[Cl]` [chromium chloride], the “effect on body mass, percentage lean or fat content, tissue size, blood variables” value in the data set with rats is given as “no effect”.
For the molecule “chromium(III) tris(picolinate) [Cr(pic)3]”, the insulin requirements entry in data set [3] (138 adult-onset diabetic patients) was “reduced insulin requirements”. Also, the glycemic control result in data set [3] (180 adult-onset diabetic patients) is “improved glycemic control”. The absorption efficiency in data set [2] was 0.5-2%. Besides, the “effect on body mass, percentage lean or fat content, tissue size, blood variables” value in the data set with rats is reported as “no effect”. The acute toxic effects result in the data set with rats (rats, up to 1500 μg/kg diet for up to 24 weeks) is “no acute toxic effects”. The chromosome damage entry with chromosome is listed as “cause chromosome damage”.
